According to patent US20240287138A1, “CYCLIC PEPTIDES FOR INHIBITING TNF RECEPTOR 1 ACTIVITY” (Merck Sharp & Dohme LLC, priority 2023, published 2024):
Numbered stars: 1 amine (or outer) side, 2 acyl side, 3 side chain; on linkers, the order of the positions; unused ones are H or OH. Square brackets hold non-standard residues; d marks the D form. Peptide text beside a SMILES is read from it. * marks the point of attachment. Trp(βS-Me,7-OMe) = COc1cccc2c([C@H](C)[C@H](N)C(=O)O)c[nH]c12; dPro(trans-4-NMe3+) = C[N+](C)(C)[C@@H]1CN[C@@H](C(=O)O)C1; Trp(1-CH2COOH) = N[C@@H](Cc1cn(CC(=O)O)c2ccccc12)C(=O)O; Phe(4-SO2NH2) = N[C@@H](Cc1ccc(S(N)(=O)=O)cc1)C(=O)O; Trp(7-CN) = N#Cc1cccc2c(C[C@H](N)C(=O)O)c[nH]c12; Trp(7-Cl) = N[C@@H](Cc1c[nH]c2c(Cl)cccc12)C(=O)O; X27 = O=C(O)c1ccc(C[C@H](N[*:1])C(=O)[*:2])cc1F; Phe(3-CONH2) = NC(=O)c1cccc(C[C@H](N)C(=O)O)c1; Phe(3-COOH) = N[C@@H](Cc1cccc(C(=O)O)c1)C(=O)O; Phe(4-CONH2) = NC(=O)c1ccc(C[C@H](N)C(=O)O)cc1; Phe(4-COOH) = N[C@@H](Cc1ccc(C(=O)O)cc1)C(=O)O; X30 = O=C([C@@H](N[*:1])[C@H](O)c1ccncc1)[*:2]; 4Pal(3S-Me) = C[C@@H](c1ccncc1)[C@H](N)C(=O)O; Trp(7-aza) = N[C@@H](Cc1c[nH]c2ncccc12)C(=O)O; Pip(5R-OH) = O=C(O)[C@@H]1CC[C@@H](O)CN1; X1 = O=C([C@@H]1CC[C@H](N[*:1])C1)[*:2]; Gly(Nα-CH2CH2CONH2) = NC(=O)CCNCC(=O)O; Pip(4-aza) = O=C(O)[C@@H]1CNCCN1; 4Pal = N[C@@H](Cc1ccncc1)C(=O)O; NMeE = CN[C@@H](CCC(=O)O)C(=O)O; dHyp = O=C(O)[C@H]1C[C@H](O)CN1; Cit = NC(=O)NCCC[C@H](N)C(=O)O; Ahp(2) = CCCCC[C@H](N)C(=O)O; αMeS = C[C@](N)(CO)C(=O)O; Carboxymethyl = O=C(O)C*; Nle = CCCC[C@H](N)C(=O)O; Sar = CNCC(=O)O

Experiments:
[1] = molecular target: T1, human TNFR2 ECD protein (Homo sapiens, UniProt P20333); test: SPR off-target binding (selectivity) to human TNFR2 ECD
T1 construct: HRV 3C protease cleavage site (C); 6His (C, cleaved yes); made in house; host or cells: Sf21 insect cells (baculovirus), secreted
T1 sequence (P20333 23-257): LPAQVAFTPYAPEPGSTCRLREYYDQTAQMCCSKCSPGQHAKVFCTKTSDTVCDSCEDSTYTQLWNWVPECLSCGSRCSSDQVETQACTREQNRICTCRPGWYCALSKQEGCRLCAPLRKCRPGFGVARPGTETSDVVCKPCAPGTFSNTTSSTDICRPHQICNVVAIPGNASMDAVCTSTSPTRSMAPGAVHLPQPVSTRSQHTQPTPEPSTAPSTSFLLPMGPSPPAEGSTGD
Summary of the method: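 Insect-cell human receptor ECDs, enzymatically biotinylated, immobilized via streptavidin capture chip. Peptide binding and dissociation measured in RU in pH 7.4 HEPES buffer containing 2% DMSO; chip regenerated per analyte. Rate constants give affinity.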

[2] = molecular target: T2, TNFα-induced NF-κB signal transduction pathway (TNFR1 signaling) in THP-1 cells (Homo sapiens, UniProt P19438); test: THP-1 Lucia NF-κB reporter cell assay, inhibition of TNFα-induced NF-κB signaling; assay type: cell-based; details: THP-1 NF-κB Lucia reporter cells, 10 ng/mL TNFα, 16-18 h, secreted luciferase; read-out: THP-1 IC50
T2 sequence (P19438 30-455): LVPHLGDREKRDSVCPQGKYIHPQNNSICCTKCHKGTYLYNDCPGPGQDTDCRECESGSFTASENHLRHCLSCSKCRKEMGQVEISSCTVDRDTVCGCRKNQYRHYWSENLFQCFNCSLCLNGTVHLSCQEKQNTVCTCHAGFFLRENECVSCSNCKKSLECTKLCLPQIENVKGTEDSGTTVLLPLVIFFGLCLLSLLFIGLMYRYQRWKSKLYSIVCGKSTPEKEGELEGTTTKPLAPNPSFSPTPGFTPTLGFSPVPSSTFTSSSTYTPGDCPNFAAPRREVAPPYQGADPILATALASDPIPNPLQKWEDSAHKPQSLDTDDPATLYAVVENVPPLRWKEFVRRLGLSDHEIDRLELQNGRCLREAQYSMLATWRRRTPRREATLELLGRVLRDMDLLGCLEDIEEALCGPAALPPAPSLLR
Summary of the method: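 IC50 from a 4-parameter logistic fit of secreted luciferase luminescence (QUANTI-Luc), normalised to min/max controls. Reporter THP-1 cells were exposed to peptides for 1 h at 37 °C before 10 ng/mL TNFα (final) was added overnight (16–18 h).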

| Structure (SMILES) | Kd [1] | IC50 [2] |
| --- | --- | --- |
| CCCC[C@@H]1NC(=O)[C@@H]2CC[C@@H](C2)NC(=O)[C@H]([C@@H](C)c2c[nH]c3c(OC)cccc23)NC(=O)CN(C)C(=O)[C@H](Cc2ccc(C(=O)O)cc2)NC(=O)[C@H](Cc2ccc(S(N)(=O)=O)cc2)NC(=O)[C@](C)(CO)NC(=O)[C@H](Cc2c[nH]c3c(C#N)cccc23)NC(=O)[C@H](Cc2ccc(C(=O)O)cc2)NC(=O)[C@H](CC(N)=O)NC(=O)[C@H]2C[C@H](OCC(=O)O)CN2C(=O)[C@H](Cc2c[nH]c3ncccc23)NC(=O)[C@@H]2CC[C@@H](O)CN2C(=O)[C@H](Cc2ccncc2)NC1=O [SEQ ID NO. 4] (cyclo([4Pal][Pip(5R-OH)][Trp(7-aza)][dHyp](Carboxymethyl)N[Phe(4-COOH)][Trp(7-CN)][αMeS][Phe(4-SO2NH2)][Phe(4-COOH)][Sar][Trp(βS-Me,7-OMe)][X1][Nle])) | > 1000 nM | 0.5 nM |
| CCCC[C@@H]1NC(=O)[C@@H]2CC[C@@H](C2)NC(=O)[C@H]([C@@H](C)c2c[nH]c3c(OC)cccc23)NC(=O)CN(C)C(=O)[C@H](Cc2ccc(C(=O)O)cc2)NC(=O)[C@H](Cc2ccc(C(N)=O)cc2)NC(=O)[C@](C)(CO)NC(=O)[C@H](Cc2c[nH]c3c(C#N)cccc23)NC(=O)[C@H](Cc2ccc(C(=O)O)c(F)c2)NC(=O)[C@H](CC(N)=O)NC(=O)[C@H]2C[C@H](O)CN2C(=O)[C@H](Cc2c[nH]c3ncccc23)NC(=O)[C@@H]2CC[C@@H](O)CN2C(=O)[C@H](Cc2ccncc2)NC1=O [SEQ ID NO. 8] (cyclo([4Pal][Pip(5R-OH)][Trp(7-aza)][dHyp]N[X27][Trp(7-CN)][αMeS][Phe(4-CONH2)][Phe(4-COOH)][Sar][Trp(βS-Me,7-OMe)][X1][Nle])) | > 1000 nM | 0.7 nM |
| CCCC[C@@H]1NC(=O)[C@@H]2CC[C@@H](C2)NC(=O)[C@H]([C@@H](C)c2c[nH]c3c(OC)cccc23)NC(=O)CN(C)C(=O)[C@H](Cc2ccc(C(N)=O)cc2)NC(=O)[C@H](Cc2ccc(S(N)(=O)=O)cc2)NC(=O)[C@](C)(CO)NC(=O)[C@H](Cc2c[nH]c3c(C#N)cccc23)NC(=O)[C@H](Cc2ccc(C(=O)O)cc2)NC(=O)[C@H](CC(N)=O)NC(=O)[C@H]2C[C@H]([N+](C)(C)C)CN2C(=O)[C@H](Cc2cn(CC(=O)O)c3ccccc23)NC(=O)[C@@H]2CC[C@@H](O)CN2C(=O)[C@H](Cc2ccncc2)NC1=O [SEQ ID NO. 9] (cyclo([4Pal][Pip(5R-OH)][Trp(1-CH2COOH)][dPro(trans-4-NMe3+)]N[Phe(4-COOH)][Trp(7-CN)][αMeS][Phe(4-SO2NH2)][Phe(4-CONH2)][Sar][Trp(βS-Me,7-OMe)][X1][Nle])) | > 1000 nM | 0.6 nM |
| CCCCC[C@@H]1NC(=O)[C@@H]2CC[C@@H](C2)NC(=O)[C@H]([C@@H](C)c2c[nH]c3c(OC)cccc23)NC(=O)CN(C)C(=O)[C@H](Cc2cccc(C(N)=O)c2)NC(=O)[C@H](Cc2ccc(C(N)=O)cc2)NC(=O)[C@](C)(CO)NC(=O)[C@H](Cc2c[nH]c3c(C#N)cccc23)NC(=O)[C@H](Cc2ccc(C(=O)O)cc2)NC(=O)[C@H](CC(N)=O)NC(=O)CN(CCC(N)=O)C(=O)[C@H](Cc2c[nH]c3ccccc23)NC(=O)[C@@H]2CNCCN2C(=O)[C@H](Cc2ccncc2)NC1=O [SEQ ID NO. 10] (cyclo([4Pal][Pip(4-aza)]W[Gly(Nα-CH2CH2CONH2)]N[Phe(4-COOH)][Trp(7-CN)][αMeS][Phe(4-CONH2)][Phe(3-CONH2)][Sar][Trp(βS-Me,7-OMe)][X1][Ahp(2)])) | > 1000 nM | 0.8 nM |
| CCCC[C@@H]1NC(=O)[C@@H]2CC[C@@H](C2)NC(=O)[C@H]([C@@H](C)c2c[nH]c3c(OC)cccc23)NC(=O)CN(C)C(=O)[C@H](Cc2ccc(C(N)=O)cc2)NC(=O)[C@H](Cc2ccc(C(N)=O)cc2)NC(=O)[C@](C)(CO)NC(=O)[C@H](Cc2c[nH]c3c(C#N)cccc23)NC(=O)[C@H](Cc2ccc(C(=O)O)cc2)NC(=O)[C@H](CC(N)=O)NC(=O)[C@H]2C[C@H](OC)CN2C(=O)[C@H](Cc2c[nH]c3ccccc23)NC(=O)[C@@H]2CC[C@@H](O)CN2C(=O)[C@H](Cc2ccncc2)NC1=O [SEQ ID NO. 14] (cyclo([4Pal][Pip(5R-OH)]W[dHyp](Me)N[Phe(4-COOH)][Trp(7-CN)][αMeS][Phe(4-CONH2)][Phe(4-CONH2)][Sar][Trp(βS-Me,7-OMe)][X1][Nle])) | > 1000 nM | 0.8 nM |
| CCCCC[C@@H]1NC(=O)[C@@H]2CC[C@@H](C2)NC(=O)[C@H]([C@@H](C)c2c[nH]c3c(OC)cccc23)NC(=O)CN(C)C(=O)[C@H](Cc2ccc(C(N)=O)cc2)NC(=O)[C@H](Cc2ccc(C(N)=O)cc2)NC(=O)[C@](C)(CO)NC(=O)[C@H](Cc2c[nH]c3c(C#N)cccc23)NC(=O)[C@H](Cc2ccc(C(=O)O)cc2)NC(=O)[C@H](CC(N)=O)NC(=O)[C@H]2C[C@H](O)CN2C(=O)[C@H](Cc2c[nH]c3ccccc23)NC(=O)[C@H](CO)NC(=O)[C@H]([C@H](O)c2ccncc2)NC1=O [SEQ ID NO. 16] (cyclo([Ahp(2)][X30]SW[dHyp]N[Phe(4-COOH)][Trp(7-CN)][αMeS][Phe(4-CONH2)][Phe(4-CONH2)][Sar][Trp(βS-Me,7-OMe)][X1])) | > 1000 nM | 0.6 nM |
| CCCC[C@@H]1NC(=O)[C@@H]2CC[C@@H](C2)NC(=O)[C@H]([C@@H](C)c2c[nH]c3c(OC)cccc23)NC(=O)CN(C)C(=O)[C@H](Cc2cccc(C(=O)O)c2)NC(=O)[C@H](Cc2ccc(C(N)=O)cc2)NC(=O)[C@](C)(CO)NC(=O)[C@H](Cc2c[nH]c3c(Cl)cccc23)NC(=O)[C@H](Cc2ccc(C(=O)O)cc2)NC(=O)[C@H](CC(N)=O)NC(=O)[C@H]2C[C@H](O)CN2C(=O)[C@H](Cc2c[nH]c3ccccc23)NC(=O)[C@@H]2CC[C@@H](O)CN2C(=O)[C@H](Cc2ccncc2)NC1=O [SEQ ID NO. 17] (cyclo([4Pal][Pip(5R-OH)]W[dHyp]N[Phe(4-COOH)][Trp(7-Cl)][αMeS][Phe(4-CONH2)][Phe(3-COOH)][Sar][Trp(βS-Me,7-OMe)][X1][Nle])) | > 1000 nM | 0.8 nM |
| CCCC[C@@H]1NC(=O)[C@@H]2CC[C@@H](C2)NC(=O)[C@H]([C@@H](C)c2c[nH]c3c(OC)cccc23)NC(=O)CN(C)C(=O)[C@H](Cc2ccc(C(N)=O)cc2)NC(=O)[C@H](Cc2ccc(C(N)=O)cc2)NC(=O)[C@](C)(CO)NC(=O)[C@H](Cc2c[nH]c3c(C#N)cccc23)NC(=O)[C@H](Cc2ccc(C(=O)O)cc2)NC(=O)[C@H](CC(N)=O)NC(=O)[C@H](CCC(=O)O)N(C)C(=O)[C@H](Cc2c[nH]c3ccccc23)NC(=O)[C@@H]2CC[C@@H](O)CN2C(=O)[C@H](Cc2ccncc2)NC1=O [SEQ ID NO. 19] (cyclo([4Pal][Pip(5R-OH)]W[NMeE]N[Phe(4-COOH)][Trp(7-CN)][αMeS][Phe(4-CONH2)][Phe(4-CONH2)][Sar][Trp(βS-Me,7-OMe)][X1][Nle])) | > 1000 nM | 0.6 nM |
| CCCCC[C@@H]1NC(=O)[C@@H]2CC[C@@H](C2)NC(=O)[C@H]([C@@H](C)c2c[nH]c3c(OC)cccc23)NC(=O)CN(C)C(=O)[C@H](Cc2ccc(C(N)=O)cc2)NC(=O)[C@H](Cc2ccc(C(N)=O)cc2)NC(=O)[C@](C)(CO)NC(=O)[C@H](Cc2c[nH]c3c(C#N)cccc23)NC(=O)[C@H](Cc2ccc(C(=O)O)cc2)NC(=O)[C@H](CC(N)=O)NC(=O)[C@H]2C[C@H](O)CN2C(=O)[C@H](Cc2c[nH]c3ccccc23)NC(=O)[C@H](CCCNC(N)=O)NC(=O)[C@H]([C@@H](C)c2ccncc2)NC1=O [SEQ ID NO. 110] (cyclo([Ahp(2)][4Pal(3S-Me)][Cit]W[dHyp]N[Phe(4-COOH)][Trp(7-CN)][αMeS][Phe(4-CONH2)][Phe(4-CONH2)][Sar][Trp(βS-Me,7-OMe)][X1])) |  | 1.2 nM |
